What was measured:
PC-3 tumor = assay: SPECT/CT, PC-3 tumor in mouse transplanted with LNCaP and PC-3; type: in vivo; conditions: 24 (and 48) hours after administration
Description: LNCaP cells (1.0×10^7 cells/mouse) were suspended in a mixture of PBS and Matrigel (1:1, 150 μL) and subcutaneously transplanted to the right shoulder of a male CB17/IcrJcl-Prkdc^scid mouse kept in the same manner as in Example 1-1 under isoflurane anesthesia. In addition, a suspension of PC-3 cells (1.0×10^7 cells/mouse) in a mixture of PBS and Matrigel (1:1, 150 μL) was subcutaneously transplanted into the left shoulder of the same mouse under isoflurane anesthesia. Thereafter, the mouse was kept for 40 to 60 days. In this way, a tumor-transplanted mouse in which LNCaP cells and PC-3 cells were simultaneously transplanted into one mouse was obtained. The tumor-transplanted mouse was then administered saline solution (2.7 MBq, 100 μL) of [^111In]In-PtDA from the tail vein. SPECT/CT was performed 24 and 48 hours after administration with FX3300 pre-clinical imaging system, which is manufactured by Gamma Medica-Ideas. Imaging was performed using a pinhole collimator with a diameter of 1.0 mm at a rotation radius of 35 mm, a projection time of 70 seconds, and the number of projections of 32 times under isoflurane anesthesia. After SPECT, CT (Tube voltage: 60 kV, Tube current: 350 μA) was performed. Image reconstruction was performed on the projection data of SPECT through three-dimensional ordered subset expectation maximization method (8 subsets, 5 iterations). […]

[1] = Evaluation of stability in plasma; type: in vitro ADME; conditions: 37° C., 24 hours
Description: A saline (20 μL) solution of [^111In]In-PSMA-DA1 (370 kBq) or [^90Y]Y-PSMA-DA1 (3.7 MBq) was added to mouse plasma (200 μL), and the mixture was allowed to stand at 37° C. for 24 hours (n=3). Then, MeCN (200 μL) was added, and the mixture was centrifuged at 10,000×g for 5 minutes. The supernatant was filtered, and the filtrate was analyzed by reverse phase HPLC under the following conditions.
(Analytical conditions: Cosmosil 5C18-PAQ column (4.6×250 mm); mobile phase: MeCN/H2O/TFA [20/80/0.1 (0 min) to 50/50/0.1 (30 min)]; flow rate: 1 mL/min.)
A saline (20 μL) solution of [^111In]In-PtDA (259 kBq) was added to mouse plasma (200 μL), and the mixture was allowed to stand at 37° C. for 24 hours (n=3). MeCN (400 μL) was added thereto, and the mixture was centrifuged at 10,000×g for 5 minutes. The supernatant was filtered, and the filtrate was analyzed by reverse phase HPLC under the following conditions.
Analytical conditions: Cosmosil 5C18-AR-II column (4.6×150 mm); mobile phase: MeCN/H2O/TFA [10/90/0.1 (0 min) to 70/30/0.1 (30 min)]; flow rate: 1 mL/min.

[2] = test system: PC-3 cells (PSMA-negative, human prostate cancer); assay: Binding assay using cultured cells (PC-3); type: cell-based; conditions: 37° C., 1 hour
Description: LNCaP cells (PSMA-positive, human prostate cancer) and PC-3 cells (PSMA-negative, human prostate cancer) were used. These cells were purchased from American Type Culture Collection and DS Biomedical, respectively. Each of the cells were cultured in RPMI 1640, which is manufactured by NACALAI TESQUE, INC. and contains antibiotics (penicillin and streptomycin) and 10% inactivated fetal bovine serum, at 37° C. under 5% CO2.
The LNCaP cells and PC-3 cells were each seeded on a 12 well plate at 4.0×10^5 cells/well, and left standing at 37° C. under 5% CO2 for 48 hours.
The culture medium was removed, and an assay medium (0.5% FBS-containing RPMI 1640 medium) solution (1 mL) containing [^111In]In-PSMA-DA1 or [^111In]In-PSMA-DB (37 kBq) was added. Thereafter, the plate was allowed to stand at 37° C. under 5% CO2 for 1 hour. […]
The radioactivity for each of the assay medium and the cell lysate was measured with a gamma counter. Separately, the total protein concentration in the cell lysate was calculated using BCA Protein Assay Kit, which is manufactured by Thermo Fisher Scientific K.K. The value (% ID/mg protein) obtained by dividing the percentage (% ID) of the sample's radioactivity amount to the added radioactivity amount by the total protein amount was calculated for each sample. […]

[3] = Evaluation of distribution coefficient (1-octanol/PBS); type: physicochemical; conditions: 1-octanol / PBS pH 7.4
Description: [^111In]In-PtDA (111 kBq) was added to a mixture of PBS (pH 7.4, 3 mL) and 1-octanol (3 mL), and the mixture was dispersed by vortexing for 2 minutes and then centrifuged at 4000×g for 5 minutes. 1 mL was recovered respectively from the 1-octanol layer and the PBS layer, and the radioactivity of each layer was measured with a gamma counter (n=3).
As the calculation formula, “(Distribution coefficient)=Log10[(radioactivity of 1-octanol layer [kBq])/(radioactivity of PBS layer [kBq])]” was used.

| Compound | radioactivity signal in the PC-3 tumor in SPECT/CT (PC-3 tumor) | stably present in mouse plasma [1] [%] | binding to PC-3 cells [2] [% ID/mg protein] | Log P (distribution coefficient) [3] |
| --- | --- | --- | --- | --- |
| O=C([O-])CN(Cc1cccc(C(=O)[O-])n1)C[C@H](Cc1ccc(NC(=O)[C@H](CCCCNC(=O)CCC(=O)NCCCC[C@H](NC(=O)N[C@@H](CCC(=O)O)C(=O)O)C(=O)O)NC(=O)CCCc2ccc(I)cc2)cc1)N(CC(=O)[O-])Cc1cccc(C(=O)[O-])n1.[111In+3] [[^111In]In-Octapa-2] | hardly observed | – | – | – |
| O=C([O-])CN1CCN(C(CCC(=O)NCCC(=O)N2Cc3ccccc3-c3c(nnn3CCOCCOCCOCCOCCC(=O)NCCCC[C@H](NC(=O)N[C@@H](CCC(=O)O)C(=O)O)C(=O)O)-c3ccccc32)C(=O)[O-])CCN(CC(=O)[O-])CCN(C(CCC(=O)N[C@@H](CCCCNC(=O)CCCc2ccc(I)cc2)C(=O)O)C(=O)[O-])CC1.[111In+3] (some centres unmarked) [[^111In]In-PtDA] | almost no radioactive signal | ≥ 95 | 0.15 | −3.08±0.02 |
